{
  "source": "patent US20100111838A1",
  "about": "“BRAIN-LOCALIZING POLYPEPTIDES COMPRISING A MULTIVALENT BINDING MOIETY AND IMPROVED METABOLIC STABILITY” (Proteus Sciences Co., Ltd, priority 2007, published 2010)",
  "assay": "In vitro metabolism test of fluorescein-labeled peptides in liver extract solution (HPLC)",
  "assay_type": "in vitro ADME",
  "conditions": "liver extract solution (supernatant of liver homogenate), mouse liver extract solution, 37° C., read-out: residual ratio of unchanged peptide in liver extract solution",
  "protocol": "To compare the degree of improved stability observed in [C]K004K, an experiment system that uses a fluorescent pigment as a tracer instead of an isotope labeling for in vitro evaluation using a mouse liver homogenate was produced.\nAdd two parts of Hanks' solution to one part of mouse liver, and homogenize ↓ Centrifuge and collect supernatant ↓ Add five parts of Hanks' solution (liver extract solution) ↓ Add 5 μL of peptide to 245 μL of liver extract solution ↓\n↓ Take 50 μL of sample 0, 5, 30, 60, and 120 minutes after incubation ↓ Add 200 μL, of 70% ethanol (pre-cooled at −30° C.) and then vortex ↓ Add 500 μL of chloroform (pre-cooled at −30° C.) and then vigorously vortex ↓ Centrifuge and collect supernatant ↓ Add an equivalent amount of DMF and then vortex ↓ Centrifuge and collect supernatant ↓ HPLC analysis using Co-sense\n[C](Flu)-C004C: A peptide cyclized by adding C to both ends of the 004 sequence and forming a disulfide bond between them was labeled with fluorescein at its N-terminus. [C](Flu)-K004C: A peptide cyclized by adding K to the N terminus and C to the C terminus of the 004 sequence and forming a peptide bond between the N- and C-termini was labeled with fluorescein at its N terminus. [C](Flu)-K004K: A peptide cyclized by adding K to both ends of the 004 sequence and forming a peptide bond between the N- and C-termini was labeled with fluorescein at its N terminus. […]",
  "note": "Where a SMILES comes first, the peptide text is derived from it. The star is where a group is joined. 5FAM = O=C1OC2(c3ccc(O)cc3Oc3cc(O)ccc32)c2ccc(C(=O)*)cc21",
  "data": [
    {"smiles": "CC(C)C[C@@H]1NC(=O)[C@H](Cc2c[nH]cn2)NC(=O)[C@H](CCCNC(=N)N)NC(=O)[C@H](C(C)C)NC(=O)[C@H](C(C)C)NC(=O)[C@H](CCCCNC(=O)c2ccc3c(c2)C(=O)OC32c3ccc(O)cc3Oc3cc(O)ccc32)NC(=O)[C@H](CCCCN)NC(=O)[C@H](CCC(N)=O)NC(=O)[C@H](CCC(N)=O)NC1=O", "note": "[[C](Flu)-K004K] (cyclo(K(5FAM)VVRHLQQK))", "values": [
      {"measurement": "remaining at 1 h", "setting": "60-minute incubation", "result": "~50", "unit": "%"}
    ]},
    {"smiles": "CC(C)C[C@@H]1NC(=O)[C@H](Cc2c[nH]cn2)NC(=O)[C@H](CCCNC(=N)N)NC(=O)[C@H](C(C)C)NC(=O)[C@H](C(C)C)NC(=O)[C@H](CCCCNC(=O)c2ccc3c(c2)C(=O)OC32c3ccc(O)cc3Oc3cc(O)ccc32)NC(=O)[C@H](CS)NC(=O)[C@H](CCC(N)=O)NC(=O)[C@H](CCC(N)=O)NC1=O", "note": "[[C](Flu)-K004C, reference compound] (cyclo(K(5FAM)VVRHLQQC))", "values": [
      {"measurement": "remaining at 5 min", "setting": "five minutes", "result": 40, "unit": "%"}
    ]}
  ]
}
